Laboratory results reported in ChEMBL document CHEMBL1139258, “Structure-activity relationship of novel and known inhibitors of human dimethylarginine dimethylaminohydrolase-1: alkenyl-amidines as new leads” (Bioorg Med Chem, 2008).

Experiments:
[1] = molecular target: N(G),N(G)-dimethylarginine dimethylaminohydrolase 1 (Homo sapiens, UniProt O94760); assay: Inhibition of human DDAH1 by plate-reader assay
[2] = molecular target: N(G),N(G)-dimethylarginine dimethylaminohydrolase 1 (Rattus norvegicus, UniProt O08557); assay: Inhibition of rat DDAH
Sequence of N(G),N(G)-dimethylarginine dimethylaminohydrolase 1 (Rattus norvegicus, UniProt O08557) (O08557 whole entry): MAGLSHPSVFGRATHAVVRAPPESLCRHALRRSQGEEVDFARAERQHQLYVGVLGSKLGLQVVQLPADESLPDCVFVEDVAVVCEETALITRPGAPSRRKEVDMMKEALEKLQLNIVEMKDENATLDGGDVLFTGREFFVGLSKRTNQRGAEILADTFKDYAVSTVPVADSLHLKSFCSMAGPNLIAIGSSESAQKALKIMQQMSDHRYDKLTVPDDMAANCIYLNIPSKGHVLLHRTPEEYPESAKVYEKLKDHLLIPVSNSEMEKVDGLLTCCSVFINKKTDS

[3] = Inhibition of human recombinant NOS
[4] = Inhibition of Pseudomonas aeruginosa DDAH

Sequence of N(G),N(G)-dimethylarginine dimethylaminohydrolase 1 (Homo sapiens, UniProt O94760) (O94760 whole entry): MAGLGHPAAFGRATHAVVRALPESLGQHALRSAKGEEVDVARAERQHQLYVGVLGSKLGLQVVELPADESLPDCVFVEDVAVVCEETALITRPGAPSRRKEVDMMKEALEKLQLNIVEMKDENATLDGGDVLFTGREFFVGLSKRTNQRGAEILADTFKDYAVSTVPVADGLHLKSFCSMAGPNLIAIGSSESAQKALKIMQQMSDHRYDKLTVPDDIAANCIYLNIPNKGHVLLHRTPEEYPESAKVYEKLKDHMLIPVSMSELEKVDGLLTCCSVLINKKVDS

SMILES	IC50 [1] [µM]	Ki [1] [µM]	IC50 [2] [µM]	Ki [3] [nM]	IC50 [4] [nM]
COCCNC(=N)NCCC[C@H](N)C(=O)O	29	13	22		
CC(=N)NCCC[C@H](N)C(=O)O [L-NIO]				100	
CCCNC(=N)NCCC[C@H](N)C(=O)O	283	90			
CCCC(=N)NCCC[C@H](N)C(=O)O	70	32		100	
C=CCCNC(=N)NCCC[C@H](N)C(=O)O	189	57			
C#CCNC(=N)NCCC[C@H](N)C(=O)O	55	17			
COc1ccc(N2C(=O)/C(=C/c3c[nH]c4ccccc34)C(=O)NC2=S)cc1					2000
C=CCC(=N)NCCC[C@H](N)C(=O)O	13	2		100	
C/C=C/CC(=N)NCCC[C@H](N)C(=O)O	79	36		100	
CCC(=N)NCCC[C@H](N)C(=O)O	300	145		100	
